Data published in publication PMC4214152 (Chemical science (Royal Society of Chemistry : 2010), 2011).

Assays:
αvβ3 integrin receptor = αvβ3 integrin receptor (Homo sapiens, UniProt P05106+P06756); assay type: binding
[1] = tested on: NCI-H1975 lung carcinoma cells; assay: Cell viability by MTT assay; assay type: cell-based; details: NCI-H1975, 100 μM, 24 h
HFL-1 lung fibroblasts = details: HFL-1, 100 μM, 24 h incubation
[2] = biological target: purified human αIIbβ3 integrin receptor (Homo sapiens, UniProt P05106+P08514); assay type: binding
[3] = tested on: AsPC-1 pancreatic carcinoma; assay: Cell viability by MTT assay; assay type: cell-based; details: AsPC-1, 100 μM, 24 h
αIIbβ3 integrin = αIIbβ3 integrin (Homo sapiens, UniProt P05106+P08514); assay: Hyperpolarized 129Xe NMR binding assay
physchem = assay type: physicochemical
[4] = 50 μM with 16 μM αIIbβ3 integrin, Tris buffer, 30% glycerol, 0.1% Triton X-100

SMILES	lower affinity compared to c[RGDyK] peptide alone (αvβ3 integrin receptor)	maximum toxicity [1]	maximum toxicity (HFL-1 lung fibroblasts)	weaker binding compared to c[RGDyK] peptide [2]	maximum toxicity [3]	129Xe NMR chemical shift of "bound" biosensor (αIIbβ3 integrin; [4])	129Xe NMR chemical shift of "free" biosensor (αIIbβ3 integrin; [4])	129Xe NMR chemical shift of biosensor alone (αIIbβ3 integrin; 100 μM, Tris buffer (1 mM, pH 7.2))	solubility (physchem)
C#CCOc1cc2c3cc1OCCOc1cc4c(cc1OC)Cc1cc5c(OC)cc1Cc1cc(c(OC)cc1C4)OCCOc1cc(c(cc1OCC#C)Cc1cc(c(OCc4cn(CCCC[C@@H]6NC(=O)[C@@H](Cc7ccc(O)cc7)NC(=O)[C@H](CC(=O)O)NC(=O)CNC(=O)[C@H](CCCNC(=N)N)NC6=O)nn4)cc1C3)OCCO5)C2 [Biosensor 3]	approximately 4 fold	57%	40%	approximately 10 fold	61%				
COc1cc2c3cc1OCCOc1cc4c(cc1OCc1cn(CCCC[C@@H]5NC(=O)[C@@H](Cc6ccc(O)cc6)NC(=O)[C@H](CC(=O)O)NC(=O)CNC(=O)[C@H](CCCNC(=N)N)NC5=O)nn1)Cc1cc5c(OCc6cn(CCC(=O)O)nn6)cc1Cc1cc(c(OCc6cn(CCC(=O)O)nn6)cc1C4)OCCOc1cc(c(cc1OC)Cc1cc(c(OC)cc1C3)OCCO5)C2 [Biosensor 5]						71.2 ppm	67.1 ppm	65.8 ppm	≤ 250 µM
